The source made the active and inactive calls.
What was measured:
[1] = NIH3T3 cell viability loss – ATP luminescence, mouse fibroblasts, counter-screen, dose response (AID 2010); format: functional, cell-based;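 note: cells exposed to compound for about 90 hours before reading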
cells [2] = format: functional
[3] = molecular target: Voltage-dependent T-type calcium channel subunit alpha-1H (Homo sapiens, UniProt O95180); format: functional;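 note: channel activity triggered by adding a high calcium stimulation buffer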
[4] = THP-1 cell cytotoxicity, dose response, cytotoxicity control for non-replicating M. tuberculosis project (AID 489025); format: functional
[5] = HepG2 cell cytotoxicity, dose response, cytotoxicity control for non-replicating M. tuberculosis project (AID 489018); format: functional; conditions: Mycobacterium tuberculosis
[6] = Vero E6 cell cytotoxicity, dose response, cytotoxicity control for non-replicating M. tuberculosis project, secondary assay (AID 492998); format: functional, VeroE6; conditions: Vero C1008
[7] = Trypanosoma cruzi growth suppression in host cells – NIH3T3 host cells, beta-gal luminescence, confirmation (AID 2044); format: functional, cell-based;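 note: intracellular parasites grown in NIH/3T3 mouse fibroblasts as host cells; luminescent beta-galactosidase reporter signal from transgenic T. cruzi replicating inside host cells; inhibitors lower the luminescence signal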
[8] = molecular target: Alkaline phosphatase, placental type (Homo sapiens, UniProt P05187); assay: human placental alkaline phosphatase inhibition – biochemical, luminescence, confirmation (AID 1512); format: functional
[9] = molecular target: T1, Alkaline phosphatase, tissue-nonspecific isozyme (Homo sapiens, UniProt P05186); assay: potency against alkaline phosphatase TNAP – biochemical, luminescent, dose response, SAR follow-up (AID 1056)
T1 sequence (P05186 whole entry): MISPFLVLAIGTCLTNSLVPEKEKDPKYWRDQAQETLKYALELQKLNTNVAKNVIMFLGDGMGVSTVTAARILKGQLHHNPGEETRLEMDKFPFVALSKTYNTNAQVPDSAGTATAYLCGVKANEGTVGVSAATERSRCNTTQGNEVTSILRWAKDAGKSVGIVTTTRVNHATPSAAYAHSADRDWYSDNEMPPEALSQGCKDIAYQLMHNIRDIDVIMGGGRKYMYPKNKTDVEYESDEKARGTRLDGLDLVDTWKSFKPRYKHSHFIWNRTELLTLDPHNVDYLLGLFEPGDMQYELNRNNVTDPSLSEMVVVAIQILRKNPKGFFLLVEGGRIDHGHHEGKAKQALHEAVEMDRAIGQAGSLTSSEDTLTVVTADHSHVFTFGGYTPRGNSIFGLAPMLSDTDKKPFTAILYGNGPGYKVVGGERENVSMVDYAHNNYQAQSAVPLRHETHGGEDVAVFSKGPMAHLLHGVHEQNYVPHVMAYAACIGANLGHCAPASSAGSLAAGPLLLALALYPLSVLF

Nonstructural protein 1 = Nonstructural protein 1 (Influenza A virus, UniProt Q194T2); format: functional, Influenza A virus (A/California/07/2009(H1N1))
cells [10] = format: functional, cell-based
cells [11] = format: functional, cell-based; remark: listed apart in the source
Mucolipin-3 = molecular target: T2, Mucolipin-3 (Homo sapiens, UniProt Q8TDD5); assay: Fluorescence counterscreen assay for […] agonists: dose response cell-based high-throughput screening assay to identify agonists of the transient receptor potential channel ML3 (TRPML3). [Related pubchem assays: 1424, 1448 ]; format: functional
T2 sequence (Q8TDD5 whole entry): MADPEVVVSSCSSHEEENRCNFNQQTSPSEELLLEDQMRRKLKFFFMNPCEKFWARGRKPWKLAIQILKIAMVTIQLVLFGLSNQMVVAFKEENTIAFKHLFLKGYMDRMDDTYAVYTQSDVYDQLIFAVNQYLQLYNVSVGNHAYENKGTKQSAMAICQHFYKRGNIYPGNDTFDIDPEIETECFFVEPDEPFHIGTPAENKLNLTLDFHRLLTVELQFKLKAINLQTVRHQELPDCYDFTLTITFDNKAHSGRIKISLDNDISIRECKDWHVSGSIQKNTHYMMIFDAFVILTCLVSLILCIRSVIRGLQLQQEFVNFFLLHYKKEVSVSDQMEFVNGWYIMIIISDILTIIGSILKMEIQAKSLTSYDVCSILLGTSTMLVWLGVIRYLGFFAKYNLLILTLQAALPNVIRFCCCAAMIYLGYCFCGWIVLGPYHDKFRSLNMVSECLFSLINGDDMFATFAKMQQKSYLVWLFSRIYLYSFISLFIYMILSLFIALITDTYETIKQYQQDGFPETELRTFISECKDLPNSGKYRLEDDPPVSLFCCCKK

Ion channel NompC = Ion channel NompC (Danio rerio, UniProt Q7T1G6); assay: Dose response cell-based high-throughput screening assay for agonists of the transient receptor potential channel N1 (TRPN1). [Related pubchem assays (depositor defined):AID1424, AID1448]; format: functional
[12] = molecular target: Intestinal-type alkaline phosphatase (Homo sapiens, UniProt P09923); assay: activation of human intestinal alkaline phosphatase – biochemical, dose response (AID 488873); format: functional
[13] = molecular target: Intestinal-type alkaline phosphatase (Mus musculus, UniProt P24822); assay: PubChem AID 488785; format: functional
[14] = molecular target: T1, Alkaline phosphatase, tissue-nonspecific isozyme; assay: TNAP enzyme inhibition by screening hits, dose response, selectivity assay for mouse IAP inhibitor project, biochemical, human TNAP, uHTS hits (AID 488906); format: functional

Intestinal-type alkaline phosphatase (Homo sapiens, UniProt P09923), sequence (P09923 whole entry): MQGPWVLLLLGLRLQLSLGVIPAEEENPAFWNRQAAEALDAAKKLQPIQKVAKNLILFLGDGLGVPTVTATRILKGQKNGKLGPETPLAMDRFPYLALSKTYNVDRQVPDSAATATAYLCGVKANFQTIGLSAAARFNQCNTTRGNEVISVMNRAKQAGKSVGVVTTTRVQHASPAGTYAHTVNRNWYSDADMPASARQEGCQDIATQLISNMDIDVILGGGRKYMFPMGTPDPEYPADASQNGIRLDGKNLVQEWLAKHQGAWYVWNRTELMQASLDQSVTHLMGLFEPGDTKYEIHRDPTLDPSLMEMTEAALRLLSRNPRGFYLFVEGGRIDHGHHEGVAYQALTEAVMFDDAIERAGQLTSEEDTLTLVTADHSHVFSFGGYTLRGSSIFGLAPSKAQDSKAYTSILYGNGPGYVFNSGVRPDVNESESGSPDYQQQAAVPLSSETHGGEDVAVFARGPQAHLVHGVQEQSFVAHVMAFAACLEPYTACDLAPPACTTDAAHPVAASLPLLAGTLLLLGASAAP
Alkaline phosphatase, placental type, sequence (P05187 whole entry): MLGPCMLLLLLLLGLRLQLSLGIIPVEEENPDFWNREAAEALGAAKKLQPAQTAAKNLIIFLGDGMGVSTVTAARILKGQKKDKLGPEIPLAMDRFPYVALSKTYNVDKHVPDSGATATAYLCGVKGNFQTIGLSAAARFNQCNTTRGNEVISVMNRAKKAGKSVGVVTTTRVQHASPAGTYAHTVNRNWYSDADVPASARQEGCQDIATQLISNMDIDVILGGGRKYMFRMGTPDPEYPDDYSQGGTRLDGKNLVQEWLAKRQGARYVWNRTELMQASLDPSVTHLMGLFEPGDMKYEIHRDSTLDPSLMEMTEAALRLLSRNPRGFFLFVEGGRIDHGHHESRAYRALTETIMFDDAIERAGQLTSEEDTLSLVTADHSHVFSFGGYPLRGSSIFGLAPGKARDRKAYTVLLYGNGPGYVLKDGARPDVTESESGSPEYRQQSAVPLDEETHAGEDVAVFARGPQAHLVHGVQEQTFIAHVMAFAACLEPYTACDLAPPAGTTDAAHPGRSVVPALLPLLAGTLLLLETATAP
Ion channel NompC, sequence (Q7T1G6 whole entry): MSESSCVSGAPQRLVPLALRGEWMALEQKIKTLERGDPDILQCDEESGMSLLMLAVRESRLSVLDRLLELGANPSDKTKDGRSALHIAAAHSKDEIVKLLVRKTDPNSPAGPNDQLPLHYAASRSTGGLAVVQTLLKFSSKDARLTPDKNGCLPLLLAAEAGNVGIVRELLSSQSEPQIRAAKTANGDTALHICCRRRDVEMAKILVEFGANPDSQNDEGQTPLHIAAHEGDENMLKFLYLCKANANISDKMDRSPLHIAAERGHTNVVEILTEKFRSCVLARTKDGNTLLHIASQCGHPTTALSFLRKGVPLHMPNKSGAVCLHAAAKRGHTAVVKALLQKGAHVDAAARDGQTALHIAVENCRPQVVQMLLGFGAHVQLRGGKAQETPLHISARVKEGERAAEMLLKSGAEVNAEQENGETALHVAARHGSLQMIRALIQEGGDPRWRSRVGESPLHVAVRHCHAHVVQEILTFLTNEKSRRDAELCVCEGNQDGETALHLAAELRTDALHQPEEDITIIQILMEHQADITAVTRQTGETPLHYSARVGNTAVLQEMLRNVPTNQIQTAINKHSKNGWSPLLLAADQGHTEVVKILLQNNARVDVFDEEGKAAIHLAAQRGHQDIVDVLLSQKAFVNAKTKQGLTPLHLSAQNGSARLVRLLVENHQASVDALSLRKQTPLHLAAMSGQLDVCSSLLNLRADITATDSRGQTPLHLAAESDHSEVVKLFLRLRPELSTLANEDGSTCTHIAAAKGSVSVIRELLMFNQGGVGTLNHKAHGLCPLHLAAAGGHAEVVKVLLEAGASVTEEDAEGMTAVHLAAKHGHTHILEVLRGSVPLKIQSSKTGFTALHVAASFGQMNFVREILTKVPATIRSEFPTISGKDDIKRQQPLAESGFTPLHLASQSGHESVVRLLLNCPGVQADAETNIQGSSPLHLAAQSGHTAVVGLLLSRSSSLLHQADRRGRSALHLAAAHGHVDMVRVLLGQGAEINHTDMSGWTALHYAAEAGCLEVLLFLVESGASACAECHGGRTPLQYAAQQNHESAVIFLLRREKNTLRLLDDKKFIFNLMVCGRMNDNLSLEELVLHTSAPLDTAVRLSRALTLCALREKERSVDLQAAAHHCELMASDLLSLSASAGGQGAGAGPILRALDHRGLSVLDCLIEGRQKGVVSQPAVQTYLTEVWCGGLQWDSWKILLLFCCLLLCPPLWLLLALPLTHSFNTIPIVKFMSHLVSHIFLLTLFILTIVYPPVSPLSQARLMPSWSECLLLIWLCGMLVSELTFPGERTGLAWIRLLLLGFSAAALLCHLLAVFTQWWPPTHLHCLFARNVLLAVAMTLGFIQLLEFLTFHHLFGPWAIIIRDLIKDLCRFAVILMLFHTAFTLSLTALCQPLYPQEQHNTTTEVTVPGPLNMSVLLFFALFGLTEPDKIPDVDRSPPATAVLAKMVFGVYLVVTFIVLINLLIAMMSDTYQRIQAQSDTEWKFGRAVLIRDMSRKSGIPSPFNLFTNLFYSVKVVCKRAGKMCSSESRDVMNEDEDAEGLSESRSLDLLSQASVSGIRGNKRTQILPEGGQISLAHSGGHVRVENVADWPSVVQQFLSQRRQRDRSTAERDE
Nonstructural protein 1, sequence (Q194T2 whole entry): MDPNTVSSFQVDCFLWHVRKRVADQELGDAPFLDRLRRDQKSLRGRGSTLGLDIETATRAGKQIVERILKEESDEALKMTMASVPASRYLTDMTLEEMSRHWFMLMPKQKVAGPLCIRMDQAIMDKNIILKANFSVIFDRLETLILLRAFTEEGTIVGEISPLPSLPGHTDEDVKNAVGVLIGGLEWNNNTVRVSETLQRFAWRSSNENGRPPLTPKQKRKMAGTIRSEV
Intestinal-type alkaline phosphatase (Mus musculus, UniProt P24822), sequence (P24822 whole entry): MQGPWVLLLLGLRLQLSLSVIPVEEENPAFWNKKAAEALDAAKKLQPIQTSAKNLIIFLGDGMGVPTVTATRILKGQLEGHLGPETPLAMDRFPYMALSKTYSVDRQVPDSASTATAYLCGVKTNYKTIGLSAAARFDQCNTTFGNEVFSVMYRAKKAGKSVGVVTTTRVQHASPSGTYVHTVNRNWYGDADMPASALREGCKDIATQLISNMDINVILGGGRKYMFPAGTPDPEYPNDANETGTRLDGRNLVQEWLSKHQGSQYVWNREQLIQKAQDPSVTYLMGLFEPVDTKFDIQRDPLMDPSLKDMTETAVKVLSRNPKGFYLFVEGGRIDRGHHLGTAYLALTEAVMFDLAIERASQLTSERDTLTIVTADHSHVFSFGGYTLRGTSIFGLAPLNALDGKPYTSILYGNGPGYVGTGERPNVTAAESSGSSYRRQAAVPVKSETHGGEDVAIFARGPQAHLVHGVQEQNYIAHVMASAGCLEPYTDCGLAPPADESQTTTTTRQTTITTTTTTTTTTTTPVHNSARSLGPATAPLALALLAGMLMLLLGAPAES

SMILES: CCCCN(CC)S(=O)(=O)c1ccc(C(=O)Nc2nnc(-c3cccs3)o2)cc1
- EC50 [1]: 5.48 µM (active)
- IC50 (cells [2]): 4.66 µM (active)
- EC50 [3]: 2.67 µM (active)
- CC50 [4]: 3.18 µM (active)
- CC50 [5]: 9.5 µM (active)
- CC50 [6]: 4.23 µM (active)
- EC50 [7]: 1.22 µM (active)

SMILES: Cc1cc(C)nc(SCC(=O)c2ccc(O)cc2)n1
- IC50 [8]: > 100 µM (inactive)
- IC50 [9]: > 100 µM (inactive)

SMILES: O=C(N/N=C/c1cc(Cl)cc(Cl)c1O)c1ccncc1
- IC50 (Nonstructural protein 1): 5.57 µM (active)
- EC50 (cells [10]): > 350 µM (not active)
- EC50 (cells [11]): 259 µM (active)
- EC50 (Mucolipin-3): 14.2 µM (not active)
- EC50 (Ion channel NompC): 6.49 µM (active)

SMILES: COc1cccc(C(C)NC(=O)Nc2cccc(C(F)(F)F)c2)c1 (configuration not stated)
- EC50 [12]: > 100 µM (inactive)
- IC50 [13]: 3.21 µM (active)
- IC50 [14]: > 100 µM (inactive)
